{
  "source": "paper PMC6688182",
  "about": "(Peptides, 2017)",
  "key": {"[1]": {"system": "anti-nociceptive actions of Ang-(1–7)", "details": "ref [13]; cited from earlier work"}, "[2]": {"system": "Ang-(1–7)-dependent vasorelaxation of the isolated renal artery", "experiment": "Effect of K+ channel blockers on Ang-", "design": "species or system male Wistar rat", "details": "glibenclamide 10^−5 M; PE 3 × 10^−7 M; mean ± SEM, N = 8; * P < 0.05 vs. control"}, "blood pressure": {"system": "blood pressure", "details": "ref [1],[16],[17]; cited from earlier work"}, "[3]": {"system": "Ang-(1–7)-dependent vasorelaxation of the isolated renal artery", "experiment": "Effect of NOS, soluble guanylate cyclase and cyclooxygenase inhibitors on Ang-", "design": "species or system male Wistar rat", "details": "for Effect of signaling inhibitor on Ang-(1–7)-induced vasorelaxation (in words) / Maximal vasorelaxation response to Ang-(1–7) in presence of L-NAME: L-NAME 10^−4 M; for Effect of signaling inhibitor on Ang-(1–7)-induced vasorelaxation (in words): indomethacin 10^−6 M; for Maximal vasorelaxation response to Ang-(1–7) in presence of L-NAME: N = 6"}, "mesenteric vessels": {"system": "mesenteric vessels", "details": "rat mesentery; ref [20]; cited from earlier work"}, "afferent arterioles": {"system": "afferent arterioles", "details": "ref [24]; cited from earlier work"}, "bovine endothelial cells": {"system": "bovine endothelial cells", "details": "cited from earlier work; for Effect on NO stimulation by Ang-(1–7) or AVE0991: bovine endothelial cells, ref [14],[37]"}, "SHR and WKY rats": {"system": "SHR and WKY rats", "details": "SHR and WKY rats following AT1 receptor blockade; ref [36]; cited from earlier work"}, "[4]": {"system": "Ang-(1–7)-dependent vasorelaxation of the isolated renal artery", "experiment": "Effect of angiotensin receptor antagonists on Ang-", "design": "species or system male Wistar rat", "details": "for Effect of receptor antagonist on Ang-(1–7)-induced vasorelaxation (in words): DALA, DPRO, Sarthran 10^−5 M, losartan, PD123319 10^−6 M, 20 min"}, "aortic segments": {"system": "aortic segments", "details": "ref [28]; cited from earlier work"}, "mesenteric artery": {"system": "mesenteric artery", "details": "ref [21]; cited from earlier work"}, "older WKY rats": {"system": "older WKY rats", "details": "20 months, ref [5]; cited from earlier work"}, "AT2 receptor": {"target": "T1, AT2 receptor (Rattus norvegicus, UniProt P35351)", "T1 sequence (P35351 1-363)": "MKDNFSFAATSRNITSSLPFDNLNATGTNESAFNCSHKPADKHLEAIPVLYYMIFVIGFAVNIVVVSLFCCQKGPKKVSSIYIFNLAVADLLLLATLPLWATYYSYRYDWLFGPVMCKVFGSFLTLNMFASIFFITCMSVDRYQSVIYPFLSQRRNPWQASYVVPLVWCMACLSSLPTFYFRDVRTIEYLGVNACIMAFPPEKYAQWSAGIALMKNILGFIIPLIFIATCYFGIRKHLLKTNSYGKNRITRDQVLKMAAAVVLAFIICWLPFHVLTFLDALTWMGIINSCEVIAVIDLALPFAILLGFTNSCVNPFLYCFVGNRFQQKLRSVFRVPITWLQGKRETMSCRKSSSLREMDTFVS", "experiment": "Competition of 125I-Sarthran binding in AR42J pancreatic cell membranes", "details": "0.2 nM 125I-Sarthran, antagonists up to 10^−5 M, n = 3"}, "[5]": {"system": "Mas-related receptor MrgD", "details": "aortic rings; ref [19]; cited from earlier work"}, "[6]": {"system": "Ang-(1–7)-dependent vasorelaxation of the isolated renal artery", "experiment": "Effect of bradykinin B2 receptor antagonist on Ang-", "design": "species or system male Wistar rat"}, "AT2 and AT1 sites": {"system": "AT2 and AT1 sites", "details": "ref [4],[30],[31],[35]; cited from earlier work"}, "[7]": {"system": "blood flow in multiple vascular beds", "details": "kidney, mesentery and skin; ref [27]; cited from earlier work"}},
  "note": "Values joined by “and” are separate entries in the source; they are usually repeats but may differ in a detail not shown here. Equal values may be shown once. “Also recorded” adds a separate entry of the source.",
  "data": [
    {"compound": "COc1ccc(Cl)cc1C(=O)NCCc1ccc(S(=O)(=O)NC(=O)NC2CCCCC2)cc1", "note": "[Glibenclamide]", "values": [
      {"measurement": "Effect on anti-nociceptive actions of Ang-(1–7)", "setting": "[1]", "value": "abolished the anti-nociceptive actions of Ang-(1–7)"},
      {"measurement": "Maximal vasorelaxation response to Ang-(1–7) in presence of glibenclamide", "setting": "[2]", "value": "22.3 ± 2.3 ^* %"}
    ]},
    {"compound": "COc1ccc2c(c1)c(CC(=O)O)c(C)n2C(=O)c1ccc(Cl)cc1", "note": "[Indomethacin]", "values": [
      {"measurement": "Effect on blood pressure-lowering effects of Ang-(1–7)", "setting": "blood pressure", "value": "attenuated the blood pressure-lowering effects of the peptide"},
      {"measurement": "Effect of signaling inhibitor on Ang-(1–7)-induced vasorelaxation (in words)", "setting": "[3]; ODQ 10^−5 M", "value": "failed to block the Ang-(1–7) response"},
      {"measurement": "Effect on Ang-(1–7)-dependent dilation of mesenteric vessels", "setting": "mesenteric vessels", "value": "inhibition of the Ang-(1–7) vasorelaxant effects"}
    ]},
    {"compound": "CCc1nc2c(C)cc(C)nc2n1Cc1ccc(-c2ccccc2-c2nn[nH]n2)cc1", "note": "[L158809]", "values": [
      {"measurement": "Effect on Ang-(1–7)-induced vasodilation of renal afferent arterioles", "setting": "afferent arterioles", "value": "not reversed"}
    ]},
    {"compound": "COC(=O)[C@@H](N)CCCNC(N)=N[N+](=O)[O-]", "note": "[L-NAME, nitro-l-arginine methyl ester]", "values": [
      {"measurement": "Effect on NO stimulation by Ang-(1–7) or AVE0991", "setting": "bovine endothelial cells", "value": "blocked"},
      {"measurement": "Maximal vasorelaxation response to Ang-(1–7) in presence of L-NAME", "setting": "[3]; Ang-(1–7) 10^−12 to 10^−6 M, PE 3 × 10^−7 M, mean ± SEM, * P < 0.05 vs. control", "value": "13.4 ± 2.0 ^* %"},
      {"measurement": "Maximal vasorelaxation response to Ang-(1–7) in presence of L-NAME", "setting": "[3]; Ang-(1–7) 10^−12 to 10^−6 M, PE 3 × 10^−7 M, mean ± SEM, * P < 0.05 vs. control, listed as LNAME", "value": "13 ± 2", "unit": "%"},
      {"measurement": "Effect of signaling inhibitor on Ang-(1–7)-induced vasorelaxation (in words)", "setting": "[3]; ODQ 10^−5 M", "value": "attenuated the Ang-(1–7) response"},
      {"measurement": "Effect on depressor effects of Ang-(1–7)", "setting": "SHR and WKY rats", "value": "sensitive"},
      {"measurement": "Effect on Ang-(1–7)-dependent dilation of mesenteric vessels", "setting": "mesenteric vessels", "value": "inhibition of the Ang-(1–7) vasorelaxant effects"}
    ]},
    {"compound": "CCCCc1nc(Cl)c(CO)n1Cc1ccc(-c2ccccc2-c2nn[nH]n2)cc1", "note": "[Losartan]", "values": [
      {"measurement": "Maximal vasorelaxation response to Ang-(1–7) in presence of antagonist", "setting": "[4]", "value": "22 ± 6", "unit": "%"},
      {"measurement": "Effect of receptor antagonist on Ang-(1–7)-induced vasorelaxation (in words)", "setting": "[4]", "value": "significantly attenuated"},
      {"measurement": "Effect on Ang-(1–7)-dependent relaxation of aortic segments", "setting": "aortic segments", "value": "no inhibitory effect"},
      {"measurement": "Effect on vasorelaxation of the mesenteric artery by Ang-(1–7)", "setting": "mesenteric artery", "value": "blocked"}
    ]},
    {"compound": "O=c1onc2cnc3ccccc3n12", "note": "[ODQ, 1H-[1,2,4] oxadiazolo-quinoxalin]", "values": [
      {"measurement": "Maximal vasorelaxation response to Ang-(1–7) in presence of ODQ", "setting": "[3]; ODQ 10^−5 M, Ang-(1–7) 10^−12 to 10^−6 M, PE 3 × 10^−7 M, mean ± SEM, N = 8, * P < 0.05 vs. control", "value": "10 ± 2% and 10.0 ± 2.1 ^* %"}
    ]},
    {"compound": "Cc1cc(Cn2cnc3c2C[C@@H](C(=O)O)N(C(=O)C(c2ccccc2)c2ccccc2)C3)ccc1N(C)C", "note": "[PD123319]", "values": [
      {"measurement": "Effect on NO stimulation by Ang-(1–7) or AVE0991", "setting": "bovine endothelial cells", "value": "blocked"},
      {"measurement": "Effect of receptor antagonist on Ang-(1–7)-induced vasorelaxation (in words)", "setting": "[4]", "value": "significantly attenuated"},
      {"measurement": "Effect on depressor effects of Ang-(1–7)", "setting": "SHR and WKY rats", "value": "abolished"},
      {"measurement": "Effect on depressor actions of Ang-(1–7)", "setting": "older WKY rats", "value": "blocked the depressor actions of Ang-(1–7)"},
      {"measurement": "Effect on Ang-(1–7)-dependent relaxation of aortic segments", "setting": "aortic segments", "value": "no inhibitory effect"},
      {"measurement": "Effect on Ang-(1–7)-induced vasodilation of renal afferent arterioles", "setting": "afferent arterioles", "value": "not reversed"},
      {"measurement": "Competition of 125I-Sarthran binding (in words)", "setting": "AT2 receptor", "value": "essentially abolished binding"},
      {"measurement": "Effect on vasorelaxation of the mesenteric artery by Ang-(1–7)", "setting": "mesenteric artery", "value": "but not the AT2 antagonist PD123319"},
      {"measurement": "Effect on the effects of [Ala^1]-Ang-(1–7)", "setting": "[5]", "value": "abolished the effects of [Ala^1]-Ang-(1–7)"}
    ]},
    {"compound": "CCOc1nc2cccc(C(=O)O)c2n1Cc1ccc(-c2ccccc2-c2nnn[nH]2)cc1", "note": "[candesartan]", "values": [
      {"measurement": "Effect on Ang-(1–7)-dependent NO release", "setting": "bovine endothelial cells; ref [14]", "value": "attenuated Ang-(1–7)-dependent NO release"},
      {"measurement": "Effect on vasorelaxation of the mesenteric artery by Ang-(1–7)", "setting": "mesenteric artery", "value": "blocked"}
    ]},
    {"compound": "HOE140", "values": [
      {"measurement": "Effect on NO stimulation by Ang-(1–7) or AVE0991", "setting": "bovine endothelial cells", "value": "blocked"},
      {"measurement": "Effect on depressor effects of Ang-(1–7)", "setting": "SHR and WKY rats", "value": "sensitive"},
      {"measurement": "Effect of B2 antagonist on Ang-(1–7)-induced vasorelaxation (in words)", "setting": "[6]; HOE140 5 × 10^−8 M, alone or with L-NAME 10^−4 M", "value": "markedly inhibited the vasorelaxation to Ang-(1–7); also recorded: significantly attenuated"},
      {"measurement": "Maximal vasorelaxation response to Ang-(1–7) in presence of HOE140", "setting": "[6]; HOE140 5 × 10^−8 M, PE 3 × 10^−7 M, mean ± SEM, N = 9, * P < 0.05 vs. control 42.4 ± 5.8", "value": "14.0 ± 7.0 ^* %"},
      {"measurement": "Ang-(1–7)-induced relaxation (maximal response) in presence of HOE140", "setting": "[6]; HOE140 10^−6 M as printed in the abstract, PE 3 × 10^−7 M, mean ± SEM", "value": "14 ± 7", "unit": "%"}
    ]},
    {"compound": "[D-Alanine^7]-Ang-(1–7) [D-Ala^7-Ang-(1–7)]", "values": [
      {"measurement": "Effect on NO stimulation by Ang-(1–7) or AVE0991", "setting": "bovine endothelial cells", "value": "blocked"},
      {"measurement": "Effect of receptor antagonist on Ang-(1–7)-induced vasorelaxation (in words)", "setting": "[4]", "value": "significantly inhibited; also recorded: essentially abolished"},
      {"measurement": "Effect on depressor actions of Ang-(1–7)", "setting": "older WKY rats", "value": "blocked the depressor actions of Ang-(1–7)"},
      {"measurement": "Action at AT2 and AT1 sites", "setting": "AT2 and AT1 sites", "value": "lack of actions at AT2 and AT1 sites"},
      {"measurement": "Effect on Ang-(1–7)-dependent relaxation of aortic segments", "setting": "aortic segments", "value": "abolished"},
      {"measurement": "Effect on increase in blood flow by Ang-(1–7)", "setting": "[7]", "value": "abolished"},
      {"measurement": "Effect on Ang-(1–7)-dependent dilation of mesenteric vessels", "setting": "mesenteric vessels", "value": "sensitivity to DALA blockade"},
      {"measurement": "Effect on Ang-(1–7)-induced vasodilation of renal afferent arterioles", "setting": "afferent arterioles", "value": "abolished"},
      {"measurement": "Effect on vasorelaxation of the mesenteric artery by Ang-(1–7)", "setting": "mesenteric artery", "value": "blocked"},
      {"measurement": "Effect on the effects of [Ala^1]-Ang-(1–7)", "setting": "[5]", "value": "ineffective"}
    ]},
    {"compound": "[D-Proline^7]-Ang-(1–7) [D-Pro^7-Ang-(1–7)]", "values": [
      {"measurement": "Effect of receptor antagonist on Ang-(1–7)-induced vasorelaxation (in words)", "setting": "[4]", "value": "significantly inhibited; also recorded: essentially abolished"},
      {"measurement": "Action at AT2 and AT1 sites", "setting": "AT2 and AT1 sites", "value": "lack of actions at AT2 and AT1 sites"},
      {"measurement": "Effect on the effects of [Ala^1]-Ang-(1–7)", "setting": "[5]", "value": "abolished the effects of [Ala^1]-Ang-(1–7)"}
    ]}
  ]
}
